{"source": "patent US20250360160A1", "about": "“NEW MEDICAL USE OF TAFOXIPARIN” (DILAFOR AB, priority 2022, published 2025)", "system": "term pregnant, nulliparous women with an unripe cervix", "test": "Clinical phase II trial PPL17 (Parts A and B), subcutaneous tafoxiparin vs placebo", "type": "in vivo, human", "conditions": "for proportion of women achieving spontaneous onset of labor: placebo 28.7%, FIG. 1; for Labor induced, number of subjects: onset of labor with intervention; for Labor induced with PGE-1, percent of subjects: placebo 10.2%; for Labor induced with amniotomy, percent of subjects: placebo 56.8%; for Labor induction with Balloon catheter, percent of subjects: placebo 58.0%; for Labor induced, percent of subjects: placebo 70.5%", "method": "A clinical phase II trial is performed as a randomized, double-blind, placebo-controlled, parallel-group proof of concept study (Part A) with a conditional dose finding follow up study (Part B) to evaluate the efficacy, safety, tolerability and dose response of subcutaneously administered tafoxiparin as a supplement to induction therapy in term pregnant, nulliparous women with an unripe cervix. The study is performed in Sweden and Finland (PPL17), and an EMA (European Medicines Agency) description of the study can be found on the EU Clinical Trials Register web (www.clinicaltrialsregister.eu/ctr-search/search?query=PPL17).\nA total of 170 term pregnant women are randomized to receive either 300 mg of tafoxiparin, or corresponding placebo (vehicle), administered subcutaneously every 24±3 hours and up to a total of 7 doses, or until partus (Part A).\nIn the dose finding follow up study (Part B), a total of 164 term pregnant women are randomized to receive either 75 or 150 mg of tafoxiparin administered subcutaneously every 24±3 hours […] and up to a total of 7 doses, or until partus.\nTo assess the efficacy of tafoxiparin on cervical ripening/cervical ripening rate, during and up to the first seven days of treatment, measured by Bishop score. All women must be examined to check the cervical state before enrollment.\nTime from start of treatment to increase in Bishop score of ≥2 points or spontaneous onset of labor, whichever comes first. Time from start of treatment to increase in Bishop score of ≥3 points or spontaneous onset of labor, whichever comes first. Time from start of treatment to increase in Bishop score of ≥4 points or spontaneous onset of labor, whichever comes first.\nCervical ripening as measured by change from baseline to end of treatment in Bishop Score. Time from onset of labor to partus, where onset of labor is defined as last record of 4 cm cervical dilatation visualized in the partogram and progress of labor, or last record of 4 cm of cervical dilatation in combination with amniotomy and intravenous administration oxytocin.\nProportion of women with spontaneous onset of labor (Response group I).\nTafoxiparin/Placebo is supplied by Dilafor AB to the site as kits designed to constitute 300 mg of tafoxiparin or placebo for daily administration. Apart from the active substance, each ml of study drug will constitute 0.015 M phosphate buffer. The study medication kit for each patient will contain 8 doses consisting of 2 vials containing a minimum extractable volume of 1.6 ml of 150 mg/ml of tafoxiparin or placebo. One dose is a reserve dose in case a dose is rendered unusable. The investigational product should be administered subcutaneously every 24±3hours by the site staff for up to 7 doses, or until partus. At each dosing time 1.0 ml of the drug will be extracted from each of the 2 vials and injected as separate s.c. injections in the abdominal or hip region.\nTafoxiparin/Placebo is supplied by Dilafor AB to the site as kits designed to constitute 75 or 150 mg of tafoxiparin for daily administration. Apart from the active substance, each ml of study drug will constitute 0.015 M phosphate buffer. The study medication kit for each patient will contain 8 doses consisting of 2 vials for each injection occasion containing a minimum extractable volume of 1.6 ml of 150 mg/ml of tafoxiparin or placebo. For subjects receiving 75 mg of tafoxiparin, one vial will contain active substance and one containing placebo. For subjects receiving 150 mg of tafoxiparin, both vials will contain active substance. One dose is a reserve dose in case a dose is rendered unusable. The investigational product should be administered subcutaneously every 24±3 hours by the site staff for up to 7 doses, or until partus. At each dosing time, 0.5 ml of the drug will be extracted from each of the 2 vials and injected as separate s.c. injections in the abdominal or hip region. […]", "key": {"[1]": {"conditions": "75 mg, n = 83, listed as tafoxiparin"}}}
{"substance": "tafoxiparin", "values": [{"measurement": "proportion of women achieving spontaneous onset of labor", "setting": "75 mg daily s.c., of 82 women, p 0.102", "result": 40.2, "unit": "%"}, {"measurement": "number of subjects (women) that reach spontaneous onset of labor", "setting": "75 mg, Study day 1, n=33", "result": 0}, {"measurement": "percent of subjects (women) that reach spontaneous onset of labor", "setting": "75 mg, Study day 1, n=33", "result": "(0%)"}, {"measurement": "number of subjects (women) that reach spontaneous onset of labor", "setting": "75 mg, Study day 2, n=33", "result": 3}, {"measurement": "percent of subjects (women) that reach spontaneous onset of labor", "setting": "75 mg, Study day 2, n=33", "result": "(9%)"}, {"measurement": "number of subjects (women) that reach spontaneous onset of labor", "setting": "75 mg, Study day 3, n=33", "result": 6}, {"measurement": "percent of subjects (women) that reach spontaneous onset of labor", "setting": "75 mg, Study day 3, n=33", "result": "(18%)"}, {"measurement": "number of subjects (women) that reach spontaneous onset of labor", "setting": "75 mg, Study day 4, n=33", "result": 11}, {"measurement": "percent of subjects (women) that reach spontaneous onset of labor", "setting": "75 mg, Study day 4, n=33", "result": "(33%)"}, {"measurement": "number of subjects (women) that reach spontaneous onset of labor", "setting": "75 mg, Study day 5, n=33", "result": 22}, {"measurement": "percent of subjects (women) that reach spontaneous onset of labor", "setting": "75 mg, Study day 5, n=33", "result": "(67%)"}, {"measurement": "number of subjects (women) that reach spontaneous onset of labor", "setting": "75 mg, Study day 6, n=33", "result": 25}, {"measurement": "percent of subjects (women) that reach spontaneous onset of labor", "setting": "75 mg, Study day 6, n=33", "result": "(76%)"}, {"measurement": "number of subjects (women) that reach spontaneous onset of labor", "setting": "75 mg, Study day 7, n=33", "result": 32}, {"measurement": "percent of subjects (women) that reach spontaneous onset of labor", "setting": "75 mg, Study day 7, n=33", "result": "(97%)"}, {"measurement": "number of subjects (women) that reach spontaneous onset of labor", "setting": "75 mg, Study day 8, n=33", "result": 33}, {"measurement": "percent of subjects (women) that reach spontaneous onset of labor", "setting": "75 mg, Study day 8, n=33", "result": "(100%)"}, {"measurement": "Fetal distress as indication for operative delivery (ODFD), number of patients", "setting": "75 mg, n = 83", "result": 16}, {"measurement": "Labor induced with PGE-1, number of subjects", "setting": "75 mg, n = 83", "result": 7}, {"measurement": "Labor induced with amniotomy, number of subjects", "setting": "75 mg, n = 83", "result": 46}, {"measurement": "Labor induced with oxytocin, number of subjects", "setting": "75 mg, n = 83", "result": 34}, {"measurement": "Labor induction with Balloon catheter, number of subjects", "setting": "75 mg, n = 83", "result": 35}, {"measurement": "Labor induced, number of subjects", "setting": "75 mg, n = 83", "result": 48}, {"measurement": "Labor induced with PGE-1, percent of subjects", "setting": "75 mg, n = 83", "result": "(8.4%)"}, {"measurement": "Labor induced with PGE-1, percent of subjects", "setting": "[1]", "result": 8.4, "unit": "%"}, {"measurement": "Fetal distress as indication for operative delivery (ODFD), percent of patients", "setting": "75 mg, n = 83, placebo 22.7%", "result": 19.3, "unit": "%"}, {"measurement": "Percent of patients with operative delivery", "setting": "75 mg, n = 83, placebo 45.5%", "result": 38.6, "unit": "%"}, {"measurement": "Labor induced with oxytocin, percent of subjects", "setting": "75 mg, n = 83, placebo 54.5%", "result": "(41.0%)"}, {"measurement": "Labor induced with oxytocin, percent of subjects", "setting": "75 mg, n = 83, placebo 54.5%, listed as tafoxiparin", "result": 41.0, "unit": "%"}, {"measurement": "Labor induced with amniotomy, percent of subjects", "setting": "75 mg, n = 83", "result": "(55.4%)"}, {"measurement": "Labor induced with amniotomy, percent of subjects", "setting": "[1]", "result": 55.4, "unit": "%"}, {"measurement": "Labor induction with Balloon catheter, percent of subjects", "setting": "75 mg, n = 83", "result": "(42.2%)"}, {"measurement": "Labor induction with Balloon catheter, percent of subjects", "setting": "[1]", "result": 42.2, "unit": "%"}, {"measurement": "Labor induced, percent of subjects", "setting": "75 mg, n = 83", "result": "(57.8%)"}, {"measurement": "Labor induced, percent of subjects", "setting": "[1]", "result": 57.8, "unit": "%"}, {"measurement": "number of women reaching spontaneous onset of labor with uncomplicated delivery", "setting": "75 mg, of 29 women", "result": 22, "unit": "women"}, {"measurement": "proportion of women reaching spontaneous onset of labor with uncomplicated delivery", "setting": "75 mg, of 29 women, placebo 54.5%", "result": 75.9, "unit": "%"}, {"measurement": "number of women needing instrumental delivery or caesarian section to reach partus", "setting": "75 mg, of 33 women", "result": 11, "unit": "women"}, {"measurement": "number reaching partus by vaginal delivery with no need for instrumental delivery nor caesarian section", "setting": "75 mg, of 33 women", "result": 22, "unit": "women"}, {"measurement": "number of women achieving spontaneous onset of labor", "setting": "75 mg, of 82 women", "result": 33, "unit": "women"}, {"measurement": "number of women needing instrumental delivery", "setting": "75 mg, spontaneous onset of labor, of 29 women", "result": 7, "unit": "women"}, {"measurement": "proportion reaching partus by vaginal delivery with no need for instrumental delivery nor caesarian section", "setting": "75 mg, women with spontaneous onset of labor, of 33, placebo 48%, FIG. 5", "result": 66.7, "unit": "%"}, {"measurement": "proportion of women needing instrumental delivery or caesarian section to reach partus", "setting": "75 mg, women with spontaneous onset of labor, of 33, placebo 52%, FIG. 5", "result": 33.3, "unit": "%"}, {"measurement": "proportion of women needing instrumental delivery", "setting": "75 mg, women with spontaneous onset of labor, vaginal mode of partus, of 29, p=0.181, placebo 45.5%, FIG. 4", "result": 24.1, "unit": "%"}, {"measurement": "proportion of women achieving spontaneous onset of labor", "setting": "150 mg daily s.c., of 85 women, p 0.039", "result": 42.4, "unit": "%"}, {"measurement": "number of subjects (women) that reach spontaneous onset of labor", "setting": "150 mg, Study day 1, n=36", "result": 0}, {"measurement": "percent of subjects (women) that reach spontaneous onset of labor", "setting": "150 mg, Study day 1, n=36", "result": "(0%)"}, {"measurement": "number of subjects (women) that reach spontaneous onset of labor", "setting": "150 mg, Study day 2, n=36", "result": 4}, {"measurement": "percent of subjects (women) that reach spontaneous onset of labor", "setting": "150 mg, Study day 2, n=36", "result": "(11%)"}, {"measurement": "number of subjects (women) that reach spontaneous onset of labor", "setting": "150 mg, Study day 3, n=36", "result": 15}, {"measurement": "percent of subjects (women) that reach spontaneous onset of labor", "setting": "150 mg, Study day 3, n=36", "result": "(42%)"}, {"measurement": "number of subjects (women) that reach spontaneous onset of labor", "setting": "150 mg, Study day 4, n=36", "result": 19}, {"measurement": "percent of subjects (women) that reach spontaneous onset of labor", "setting": "150 mg, Study day 4, n=36", "result": "(53%)"}, {"measurement": "number of subjects (women) that reach spontaneous onset of labor", "setting": "150 mg, Study day 5, n=36", "result": 26}, {"measurement": "percent of subjects (women) that reach spontaneous onset of labor", "setting": "150 mg, Study day 5, n=36", "result": "(72%)"}, {"measurement": "number of subjects (women) that reach spontaneous onset of labor", "setting": "150 mg, Study day 6, n=36", "result": 30}, {"measurement": "percent of subjects (women) that reach spontaneous onset of labor", "setting": "150 mg, Study day 6, n=36", "result": "(83%)"}, {"measurement": "number of subjects (women) that reach spontaneous onset of labor", "setting": "150 mg, Study day 7, n=36", "result": 34}, {"measurement": "percent of subjects (women) that reach spontaneous onset of labor", "setting": "150 mg, Study day 7, n=36", "result": "(94%)"}, {"measurement": "number of subjects (women) that reach spontaneous onset of labor", "setting": "150 mg, Study day 8, n=36", "result": 35}, {"measurement": "percent of subjects (women) that reach spontaneous onset of labor", "setting": "150 mg, Study day 8, n=36", "result": "(97%)"}, {"measurement": "number of subjects (women) that reach spontaneous onset of labor", "setting": "150 mg, Study day 9, n=36", "result": 36}, {"measurement": "percent of subjects (women) that reach spontaneous onset of labor", "setting": "150 mg, Study day 9, n=36", "result": "(100%)"}, {"measurement": "Fetal distress as indication for operative delivery (ODFD), number of patients", "setting": "150 mg, n = 85", "result": 20}, {"measurement": "Labor induced with PGE-1, number of subjects", "setting": "150 mg, n = 85", "result": 7}, {"measurement": "Labor induced with amniotomy, number of subjects", "setting": "150 mg, n = 85", "result": 39}, {"measurement": "Labor induced with oxytocin, number of subjects", "setting": "150 mg, n = 85", "result": 38}, {"measurement": "Labor induction with Balloon catheter, number of subjects", "setting": "150 mg, n = 85", "result": 37}, {"measurement": "Labor induced, number of subjects", "setting": "150 mg, n = 85", "result": 48}, {"measurement": "Labor induced with PGE-1, percent of subjects", "setting": "150 mg, n = 85", "result": "(8.2%)"}]}
